Test results taken from patent US20130171073A1 (CEDARS-SINAI MEDICAL CENTER, priority 2010, published 2013).
Entries after “also recorded” stand apart in the source; their conditions may differ.

Assays:
[1] = test system: pituitary POMC cells overexpressing zPttg; test: In vivo treatment of Tg:Pomc-Pttg; POMC-eGFP zebrafish embryos with CDK inhibitors, pituitary POMC-eGFP fluorescence; details: for reduction in pituitary POMC-eGFP expression compared with controls: 50 μM in embryo medium, control 0.2% DMSO
Description: (§1) Results represent one of three similar experiments.
(§2) WT and transgenic embryos were examined at various developmental stages under a fluorescein isothiocyanate filter on an Axioplan-2 microscope (Carl Zeiss). Live embryo images were generated with an Axiocam video system (Carl Zeiss). Fluorescence intensity of POMC-GFP-positive cells was measured by the area of interest function in Openlab software (Improvision). For confocal imaging, images were captured in a Z-series by using a TCS SP confocal microscope (Leica Microsystems). GFP was detected at a spectral range from 507 to 550 nm, RFP from 585 to 690 nm, and DAPI from 460 to 480 nm. Images were prepared using Leica LCS lite, Volocity 5.2 (Improvision), and Photoshop 7.0 (Adobe). Pituitary GFP and RFP intensity and area were measured using Volocity 5.2 (Improvision). Lipid Staining Liver cryosections were stained with oil redO (Sigma-Aldrich) per manufacturer's protocol. Lipid staining was scored based upon area distribution (>50% positive cells, 2 points; <50% but >10%, 1 point; <10%, 0 points) and intensity [strong, large (size of cell) lipid droplets, 2 points; weak, small (smaller than cell size) lipid droplets, 1 point; negative, 0 points].

[2] = test system: zebrafish embryos; test: Gross morphology / development of zebrafish embryos exposed to CDK inhibitors; details: 50 μM, starting at 18 hpf, observed by 40 hpf
Description: (C) In vivo treatment of Tg:Pomc-Pttg; Pomc-eGFP embryos with different small molecule CDK inhibitors (50 μM) or 0.2% DMSO as control from 18-40 hpf. 100-150 embryos were treated with each compound at a time. Representative images of live embryos are shown with gross morphology (right panels) and pituitary Pomc-GFP positive cells at higher magnification (left panels) at 40 hpf. […] (D) Relative expression of pituitary Pomc-eGFP fluorescence were analyzed using Velocity 5.2 (Improvision) (mean±SE of relative expression, n=7 randomly picked embryos from 100-150 embryos of each group). […] Results represent one of three similar experiments. Scale bar, 50 μm. *, p<0.02; **, p<0.000005.
Tg:Pomc-Pttg; POMC-eGFP double transgenic embryos were exposed to each compound added to the embryo culture medium.
Dexamethasone (Sigma) was dissolved in distilled water, R-roscovitin (Selleck Chemicals), flavopiridol (Selleck Chemicals), PD0332991 (Selleck Chemicals), olomoucine (Cayman Chemical Co.), and CAY10578 (Cayman Chemical Co.) were dissolved in 0.2% DMSO at a stock concentration of 1 mM, and diluted in fish medium immediately before adding to live embryos at the stages indicated.

[3] = test system: AtT20 cells; test: ACTH radioimmunoassay of AtT20 culture medium; details: AtT20 cells vs vehicle
[4] = test system: pituitary lactotrophs (Prl-RFP); test: In vivo treatment of Tg:Pomc-Pttg; Prl-RFP zebrafish embryos, pituitary Prl-RFP fluorescence; details: 50 μM, 18 to 48 hpf
Description: as §1, §2

[5] = test system: AtT20 cells; test: Senescence (β-galactosidase expression) in AtT20 cells; details: 10 μM, 48 hours
[6] = test system: AtT20 corticotroph tumor xenografts; test: AtT20 corticotroph tumor xenograft in athymic nude mice, tumor growth and tumor protein expression; details: 150 mg/kg oral gavage twice daily
Description: (§3) Athymic nude mice were subcutaneously inoculated with corticotroph tumor AtT20 cells (1×10^5 cells). […] (D) Blood was collected from each animal for measurement of plasma ACTH and serum corticosterone levels.
Animal experiments were performed in accordance with Cedars-Sinai Institutional Animal Care and Use committee guidelines. Mouse corticotroph tumor AtT20 cells (−1×10^5) were inoculated s.c. into 6-wk-old female nu/nu mice. […] After 3 wk of treatment, mice were killed by CO2 inhalation, and tumors were dissected, weighted, and snapfrozen for further analysis.
Protein samples were prepared in RIPA buffer (Sigma), separated on NuPAGE Novex Bis-Tris Gels (Invitrogen), and transferred onto PVDF membrane (Millipore) before blotting with primary antibody [cyclin E, 1:500 (Abcam); PTTG, 1:1,000 (Abcam); β-actin, 1:5,000 (Sigma); and p21, 1:1,000, p27, 1:500, p57, 1:1,000, pRb821, 1:1,000 (Santa Cruz Biotechnology)] at 4° C. overnight. After washes with 0.5% Tween-20 in Tris-buffered saline solution, membranes were incubated with horseradish peroxidaselinked secondary antibody (GE Healthcare) and developed using ECL Western blotting detection reagents (GE Healthcare).

[7] = test system: AtT20 corticotroph tumor xenografts; test: Plasma ACTH and serum corticosterone in AtT20 xenograft-bearing nude mice; details: 150 mg/kg oral gavage twice daily, three weeks
Description: as §3
Mouse corticotroph tumor AtT20 cells (−1×10^5) were inoculated s.c. into 6-wk-old female nu/nu mice. […] After 3 wk of treatment, mice were killed by CO2 inhalation, and tumors were dissected, weighted, and snapfrozen for further analysis.

[8] = test system: mouse pituitary ACTH-secreting tumor AtT20 cell line; test: Wst-1 cell proliferation assay in AtT20 cells; details: 1−2×10^−5 M
[9] = Insulin tolerance test in adult zebrafish; type: in vivo; details: 0.1 unit/100 mg
Description: Zebrafish glucocorticoid steroidogenic cells are arranged as epithelial cell layers (arrowheads) in association with the renal head posterior cardinal vein (PCV) 28. […] Glucose tolerance tests were performed in 72 Tg:pomc-pttg and WT fish. Zebrafish was given ad lib feeding of regular diet for one hour (grey column) after 16 hours of fasting. Blood glucose was measured at different time points after re-feeding. Glucose levels are presented as mean±SE (AUC, p<0.0001). (C) Insulin tolerance tests in Tg:pomc-pttg and WT fish. […] (D) Oil red O(ORO) staining of liver sections reveal hepatic lipid accumulation in Tg:Pomc-pttg transgenics. (E) Area distribution and intensity of hepatic ORO staining were scored (mean±SE, *, p<0.01). […] Top, Tg:Pomc-pttg zebrafish (Tg) with gross pericardial fluid accumulation (arrow) compared with wildtype (WT) at 24 months. […]
To determine the metabolic impact of hypercortisolism in Tg:Pomc-Pttg zebrafish, adult Tg:Pomc-Pttg and WT fish were subjected to 16 hour fasting followed by ad libitum feeding of regular diet for one hour. […] Because teleost fish are glucose intolerant due to blunted peripheral responses to insulin^29, and glucocorticoids induce insulin resistance in mammals, insulin sensitivity was assessed by testing blood glucose responses to intraperitoneally administered insulin. […]

[10] = 18-40 hpf, Tg:Pomc-Pttg, POMC-eGFP embryos

In the case of O=C1NCCc2[nH]c(-c3ccncc3)cc21 [CAY10572], the “change in pituitary POMC-eGFP expression compared with controls” value ([1]; 50 μM, 18-40 hpf, Tg:Pomc-Pttg, POMC-eGFP embryos) is reported as “no significant change”.

With CC[C@H](CO)Nc1nc(NCc2ccccc2)c2ncn(C(C)C)c2n1 [R-roscovitine] the “embryonic growth / development of treated embryos” value (from here on “embryonic growth / development”) [2] was “no apparent growth defect”, the “ACTH concentration in culture medium (RIA)” value [3] was “decreased” and the “effect on Prl-RFP expression” value [4] was “no effect”. The “β-galactosidase expression (senescence)” value [5] was “increased”, the “reduction in pituitary POMC-eGFP expression compared with controls” value [1, 10] was “approximately 40%” and the “reduction of POMC-eGFP expression compared with control” value ([1]; 50 μM, 18 to 48 hpf, Tg:Pomc-Pttg, POMC-eGFP embryos) was “greater than 50%”. The “numbers of PCNA and ACTH co-expressing cells in tumors” value ([6]; 3 weeks) was “decreased”, the tumor volumes ([6]; 5 days per week, 3 weeks) was “decreased” and the “weight reduction of dissected tumor xenografts” value ([6]; 5 days per week, three weeks) was roughly 50%. The “weight of dissected tumor xenografts (mean±S.E.)” value ([6]; 5 days per week, three weeks, vehicle 40.0±4.7 mg, n=13-14) was 21.0 ± 2.6 mg, the “ACTH protein expression in tumor specimens (Western-blot and immunohistochemistry)” value ([6]; three weeks) was “suppressed” and the “PCNA protein expression in tumor specimens (Western-blot and immunohistochemistry)” value ([6]; three weeks) was “suppressed”. For the same compound, the “reduction in plasma ACTH levels” value [7] was greater than 50%, the “reduction in serum corticosterone levels” value [7] was roughly 50% and the “number of viable cells (Wst-1)” value ([8]; at 24 and 48 hours) was “decreased number of viable cells”. The cell number ([8]; by 24 hours) was “decreased cell number”.

With CN1CC[C@@H](c2c(O)cc(O)c3c(=O)cc(-c4ccccc4Cl)oc23)[C@H](O)C1 [flavopiridol, 2-(2-chlorophenyl)-5,7-dihydroxy-8-((3S,4S)-3-hydroxy-1-methylpiperidin-4-yl)-4H-chromen-4-one] the “embryonic growth / development” value [2] was “early developmental defect; also recorded: retarded early embryonic development”.

With Cn1cnc2c(NCc3ccccc3)nc(NCCO)nc21 [olomoucine] the “embryonic growth / development” value [2] was “no apparent growth defect”, the “reduction in pituitary POMC-eGFP expression compared with controls” value [1, 10] was “approximately 20%” and the “relative expression of pituitary POMC-eGFP fluorescence (mean±S.E.)” value ([1]; 50 μM, 18-40 hpf, n=7, control 1.0±0.08) was 0.8±0.07.

For “insulin: insulin injected intraperitoneally for insulin tolerance test”, the “blood glucose response to intraperitoneal insulin” value ([9]; Tg:Pomc-Pttg fish, up to 90 minutes after injection) was “no significant change” and the “blood glucose response to intraperitoneal insulin” value ([9]; WT fish, 30 minutes after injection) was “brisk hypoglycemic response”.
